This note sets out measurements from patent US8748435B2, “Pyrazolo pyrimidine derivatives” (Novartis AG, priority 2011, dated 2014).

One test deals with mouse GPR4 (Mus musculus (Mouse), UniProt Q8BUD0). As to the kind of experiment: Mouse GPR4 cAMP assay. The test is classed as cell-based. Here is the method:
(§1) HeLa cells stably expressing human GPR4 were established by transfecting the cells with a construct containing the human GPR4 coding sequence. The cells were grown in Dulbecco's Modified Eagle Medium (DMEM)/HAM's tissue culture medium F12 (HAM's F12) supplemented with 10% fetal calf serum (FCS), 100 u/ml penicillin, 100 μg/ml streptomycin and 400 μg/ml G418 and 10 mM Hepes pH 8.0. pH-induced formation of cAMP was determined using the homogeneous time resolved fluorescence (HTRF) technology as provided by CisBio Inc. The cells were seeded in 384-well plates and cultured for 24 hours at 37° C., 5% CO2 before performing the assay. Medium was removed and 10 μl buffer A (Hepes buffered saline (HBS), 10 mM Hepes, pH 8, 2 mM 3-Isobutyl-1-methylxanthin (IBMX)) was added. For compound testing, buffer A with 2× concentrated compounds was used. Cells were incubated for 15 min at room temperature. 10 μl buffer B (HBS, 30 mM Hepes, specific pH) was added to reach the appropriate final pH for stimulation (see below) and incubation was continued for 15 min at room temperature. […] HBS: 130 mM NaCl, 0.9 mM NaH2 PO4, 5.4 mM KCl, 0.8 mM MgSO4, CaCl2 1.8 mM, 25 mM glucose, 10-30 mM Hepes. Adjustment of HBS buffers:
(§2) Compounds were diluted from fresh stock solutions at 10 mM in DMSO to 2 mM and then used for serial dilutions in DMSO.
(§3) In a similar manner, assays for the mouse (m) and rat (r) GPR4 receptors have been established.

Test [1] concerns the target T1, human GPR4 (Homo sapiens (Human), UniProt P46093). The experiment in a line: Human GPR4 binding assay ([3H]4 radioligand, membranes of 300.19 cells expressing human GPR4). Here is the method:
a) Human GPR4 Binding Assay
(§4) Cells were grown in T175 flasks to a density of about 1×10^6 cells/mL in growth medium. The cells were harvested by centrifugation (3000 rpm for 30 minutes at 4° C.) and the pellet resuspended in ice cold buffer A (20 mM HEPES pH 7.8, 10 mM EDTA, 100 mM NaCl, 1 tab/40 mL protease inhibitor complete). […] The homogenate was centrifuged at 18000 rpm for 50 min at 4° C. and the membrane protein pellet resuspended in cold buffer A using the Polytron (2×20 seconds). The protein concentration is determined using the Bio Rad Protein Assay and human IgG as standard. The volume of the membrane protein suspension is adjusted to a final concentration of about 2 mg protein/mL. The suspension is then once again homogenized (Polytron) on ice at 25000 rpm for 20 seconds before being aliquoted and stored at −80° C.
(§5) Radio Ligand Binding Assay: Serial dilutions of compounds (stock in 10 mM DMSO) are prepared by first diluting the compounds in DMSO followed by a 1:50 dilution into assay buffer (10 mM HEPES, pH 8.0, 100 mM NaCl, 5 mM MgCl2, 1 mM CaCl2, 0.5% fatty acid-free BSA, 0.05% Tween-20). […] The desired amount of membranes (20 μg/well) is diluted with assay buffer. […] 100 μL of the membrane-suspension is added and the plate stirred for 60 minutes. […] The filter plate is washed 5 times with ice-cold wash buffer, dried and sealed at the bottom. Then 20 μL of Microscint 40 is added into each well and the top of the plate is sealed. Finally the plate is counted for 2 min/well in a TopCount NXT instrument (Packard Instruments). The data are analyzed using the GraphPad Prism™ software.

Test [2] addresses T1, human GPR4. As to the kind of experiment: Cell-based assay for human GPR4 activity (pH-induced cAMP formation, HTRF, HeLa cells). The following applies: HeLa cells stably expressing human GPR4, pH-induced cAMP. Here is the method:
b) Cell-Based Assay for Human GPR4 Activity
as §1, §2

For test [3], the system named is antigen-induced arthritis (knee swelling). As to the kind of experiment: Rat antigen-induced arthritis model. The test is classed as in vivo. The following applies: oral gavage, AUC of R/L knee swelling ratio vs control. Here is the method: e) GPR4 Activity in Rat Antigen-induced Arthritis Model Female Lewis rats were sensitised intradermally on the back at two sites to methylated bovine serum albumin (mBSA) homogenised 1:1 with complete Freund's adjuvant on days −21 and −14 (0.1 ml containing 1 mg/ml mBSA). On day 0, the right knee received […] of 10 mg/ml mBSA in 5% glucose solution (antigen injected knee), while the left knee received […] of 5% glucose solution alone (vehicle injected knee). The diameters of the left and right knees were then measured using calipers immediately after the intra-articular injections and again on days 2, 4 and 7. The compounds of the invention were administered twice daily by oral gavage; vehicle (saline) at 5 ml/kg, and dexamethasone at 0.3 mg/kg was given as a control. Right knee swelling was calculated as a ratio of left knee swelling, and the R/L knee swelling ratio plotted against time to give Area Under the Curve (AUC) graphs for control and treatment groups. The percentage inhibition of the individual treatment group AUCs were calculated vs the control group AUC (0% inhibition).

Another test has as its target rat GPR4 (Rattus norvegicus (Rat), UniProt Q4KLH9). As to the kind of experiment: Rat GPR4 cAMP assay. The test is classed as cell-based. The following applies: read-out: r cAMP IC50. The procedure:
as §1, §2, §3
(In general: cAMP levels reflect the balance of adenylyl cyclase and phosphodiesterase activity.)

For another test, the target named is Human H3 (Homo sapiens (Human), UniProt Q9Y5N1). The experiment in a line: Human H3 binding assay (SPA, [3H]-R-alpha-Methylhistamine). The note with it: 3 nM [3H]-R-alpha-Methylhistamine. Here is the method: c) Human H3 Binding Assay
Sequence of Human H3 (Q9Y5N1 whole entry): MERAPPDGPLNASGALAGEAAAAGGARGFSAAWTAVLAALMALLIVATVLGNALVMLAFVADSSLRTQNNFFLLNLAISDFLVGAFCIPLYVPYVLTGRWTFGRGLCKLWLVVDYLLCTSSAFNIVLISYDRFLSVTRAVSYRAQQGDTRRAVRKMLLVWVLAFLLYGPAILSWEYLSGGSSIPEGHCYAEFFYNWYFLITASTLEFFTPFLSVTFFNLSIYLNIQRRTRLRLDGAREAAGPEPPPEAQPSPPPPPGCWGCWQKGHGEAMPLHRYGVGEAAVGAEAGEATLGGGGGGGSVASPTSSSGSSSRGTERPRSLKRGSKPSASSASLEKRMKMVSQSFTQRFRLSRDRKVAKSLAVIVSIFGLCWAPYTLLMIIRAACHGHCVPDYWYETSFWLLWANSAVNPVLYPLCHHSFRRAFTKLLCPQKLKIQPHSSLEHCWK
The Scintillation Proximity Binding Assay (SPA) assay was performed in a final volume of 50 μL per well in a 384-well polystyrene plate.
The final concentration of the radioligand was 3 nM. • 20 μL of a beads (PVT-WGA type A) and membranes mixed suspension in assay buffer, in order to get a final concentration of 10 μg/well of membranes and 200 μg/well of beads. As an example, 1471 μL membranes (Conc.: 5.1 mg/mL) and 1500 μL of bead suspension (Conc.: 100 mg/mL) are diluted to a final volume of 15 mL of assay buffer.
The plates were sealed and shaken at room temperature, then allowed to stand at room temperature for at least 1 hour. The plates were counted using a Perkin Elmer TopCount reader, each well being counted for 1 minute.

For test [4], the target named is T1, human GPR4. The experiment in a line: Human GPR4 binding assay with additional human serum albumin (4% HSA). The note with it: binding assay with 4% HSA. The procedure: as §4, §5
In a similar manner, a binding assay with additional human serum albumin (4% HSA) has been established.

The next test concerns CFA-induced hyperalgesia. As to the kind of experiment: Established rat hyperalgesia model (CFA). The test is classed as in vivo. The following applies: gavage. The procedure:
f) Established Rat Hyperalgesia Model
Naïve withdrawal thresholds of both hind paws were determined by using an increasing pressure stimulus placed onto the dorsal surface of each paw using an analgesymeter. Delayed inflammatory pain was then induced by intra-plantar injection of 25 μl of complete Freund's adjuvant (CFA) into one hindpaw with the contralateral paw acting as the control. […] One hour later, paw withdrawal thresholds were re-measured on both the ipsilateral (CFA-injected) and contralateral (uninjected) paw; measurements were repeated at 3 hrs and 6 hrs post dosing. The reversal of hyperalgesia was calculated using the following formula: Reversal (%)=100×(postdose ipsilateral threshold−predose ipsilateral threshold) (naïve ipsilateral threshold−predose ipsilateral threshold).

Setting [5] is: radioligand [3H]4 (example 39), membranes of 300.19 cells expressing human GPR4.

One may read the IC50 as the concentration at which inhibition is half-maximal.

Structures are written as SMILES. Counter-ions that a name gives are not always drawn.

Sequence of mouse GPR4 (Q8BUD0 whole entry): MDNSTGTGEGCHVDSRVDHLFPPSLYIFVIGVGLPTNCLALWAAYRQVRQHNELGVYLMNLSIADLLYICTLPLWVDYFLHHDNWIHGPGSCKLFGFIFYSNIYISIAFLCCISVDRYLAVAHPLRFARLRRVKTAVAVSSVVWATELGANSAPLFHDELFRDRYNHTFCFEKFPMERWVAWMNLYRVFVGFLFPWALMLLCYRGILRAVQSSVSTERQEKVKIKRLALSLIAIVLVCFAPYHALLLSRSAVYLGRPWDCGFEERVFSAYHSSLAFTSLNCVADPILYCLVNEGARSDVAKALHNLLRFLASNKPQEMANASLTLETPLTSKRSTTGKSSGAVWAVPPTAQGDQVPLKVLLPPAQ
Sequence of rat GPR4 (Q4KLH9 whole entry): as the sequence (Q8BUD0 whole entry) above, with G8W, H51R, S339T counted along it
T1 sequence (P46093 whole entry): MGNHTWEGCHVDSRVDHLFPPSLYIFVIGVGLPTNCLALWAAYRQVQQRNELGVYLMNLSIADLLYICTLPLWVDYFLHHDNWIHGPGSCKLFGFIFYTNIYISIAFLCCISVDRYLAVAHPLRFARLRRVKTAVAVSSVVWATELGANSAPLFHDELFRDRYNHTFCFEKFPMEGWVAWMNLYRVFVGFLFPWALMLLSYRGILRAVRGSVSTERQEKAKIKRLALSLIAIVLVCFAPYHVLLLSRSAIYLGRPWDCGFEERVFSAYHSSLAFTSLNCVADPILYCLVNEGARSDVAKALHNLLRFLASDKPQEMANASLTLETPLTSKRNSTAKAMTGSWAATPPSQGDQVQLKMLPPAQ

With `CCc1nn2c(C)cc(C)nc2c1Cc1ccc(/C=C/CN2CCN[C@H](CO)C2)cc1` [Example 8, ((S)-4-{(E)-3-[4-(2-Ethyl-5,7-dimethyl-pyrazolo[1,5-a]pyrimidin-3-ylmethyl)-phenyl]-allyl}-piperazin-2-yl)-methanol dihydrochloride], the IC50 against mouse GPR4 was 378 nM; on human GPR4 [1] (setting [5]) it was 28 nM; against human GPR4 [2], 34 nM; on rat GPR4, 670 nM; on Human H3 it was more than 30000 nM; at human GPR4 [4] it was 51 nM. Further, the Inhibition of swelling in test [3] (90 mg/kg bid) came out at 30%.
Regarding `CCc1nn2c(C)cc(C)nc2c1Cc1ccc(OC[C@H]2CC[C@@H](N)CC2)cc1` [Example 23, 4-[4-(2-Ethyl-5,7-dimethyl-pyrazolo[1,5-a]pyrimidin-3-ylmethyl)-phenoxymethyl]-cyclohexylamine], the IC50 against mouse GPR4 is 262 nM; at human GPR4 [2], 21 nM; on rat GPR4, 1410 nM; on Human H3, more than 30000 nM; at human GPR4 [4], 19 nM. Besides, in test [3] (30 mg/kg bid), the Inhibition of swelling was determined as 24%.
On to `CCc1nn2c(C)cc(C)nc2c1Cc1ccc(/C=C/CN2CCNCC2)cc1` [Example 14, 2-Ethyl-5,7-dimethyl-3-[4-((E)-3-piperazin-1-yl-propenyl)-benzyl]-pyrazolo[1,5-a]pyrimidine], for which the IC50 against mouse GPR4 was 127 nM; on human GPR4 [1] (setting [5]), 10 nM; at human GPR4 [2], 55 nM; at rat GPR4, 691 nM; at Human H3 it was more than 30000 nM; at human GPR4 [4], 12 nM.
Consider `CCc1nn2c(C)cc(C)nc2c1Cc1ccc(/C=C/CN2CCN(C[C@@H](O)CO)CC2)cc1.Cl.Cl` [Example 17, (R)-3-(4-{(E)-3-[4-(2-Ethyl-5,7-dimethyl-pyrazolo[1,5-a]pyrimidin-3-ylmethyl)-phenyl]-allyl}-piperazin-1-yl)-propane-1,2-diol dihydrochloride], for which the Inhibition of swelling in test [3] (30 mg/kg bid) worked out at 36%. In addition, the “% reversal of hyperalgesia” value with CFA-induced hyperalgesia (3 mg/kg, 1 h) is 28%; with CFA-induced hyperalgesia (3 mg/kg, 3 h), 18%; in the test with CFA-induced hyperalgesia (3 mg/kg, 6 h), 3%; with CFA-induced hyperalgesia (10 mg/kg, 1 h), 36%; in the test with CFA-induced hyperalgesia (10 mg/kg, 3 h), 29%; with CFA-induced hyperalgesia (10 mg/kg, 6 h), 7%. In addition, the “% reversal of hyperalgesia” value with CFA-induced hyperalgesia (30 mg/kg, 1 h) was 55%; in the test with CFA-induced hyperalgesia (30 mg/kg, 3 h), 32%; in the test with CFA-induced hyperalgesia (30 mg/kg, 6 h), 15%.
Turning to `CCc1nn2c(C)cc(C)nc2c1Cc1ccc(/C=C/CN2CCN[C@@H](CN(C)C)C2)cc1` [Example 13, ((S)-4-{(E)-3-[4-(2-Ethyl-5,7-dimethyl-pyrazolo[1,5-a]pyrimidin-3-ylmethyl)-phenyl]-allyl}-piperazin-2-ylmethyl)-dimethyl-amine trihydrochloride], the IC50 was 388 nM against mouse GPR4; 7 nM on human GPR4 [1]; 68 nM at human GPR4 [2]; 1690 nM on rat GPR4; 4900 nM at Human H3; 7 nM on human GPR4 [4].
As to `CCc1nn2c(C)cc(C)nc2c1Cc1ccc(-n2cc(CN3CC(N)C3)cn2)cc1` [Example 29, 1-{1-[4-(2-Ethyl-5,7-dimethyl-pyrazolo[1,5-a]pyrimidin-3-ylmethyl)-phenyl]-1H-pyrazol-4-ylmethyl}-azetidin-3-ylamine], the IC50 was 211 nM against mouse GPR4; 21 nM at human GPR4 [1] (setting [5]); 36 nM against human GPR4 [2]; 430 nM at rat GPR4; more than 30000 nM on Human H3; 30 nM on human GPR4 [4].
In the case of `CCc1nn2c(C)cc(C)nc2c1Cc1ccc(-n2cc(CN3CC(O)C3)cn2)cc1` [Example 28, 1-{1-[4-(2-Ethyl-5,7-dimethyl-pyrazolo[1,5-a]pyrimidin-3-ylmethyl)-phenyl]-1H-pyrazol-4-ylmethyl}-azetidin-3-ol], the IC50 amounted to 687 nM at mouse GPR4; 118 nM on human GPR4 [1] (setting [5]); 49 nM against human GPR4 [2]; 2300 nM at rat GPR4; 20000 nM on Human H3; 180 nM at human GPR4 [4]. For the same compound, the Inhibition of swelling in test [3] (90 mg/kg bid) was determined as 25%.
In the case of `CCc1nn2c(C)cc(C)nc2c1Cc1ccc(-n2cc(CC3(O)CCNCC3)nn2)cc1` [Example 34, 4-{1-[4-(2-Ethyl-5,7-dimethyl-pyrazolo[1,5-a]pyrimidin-3-ylmethyl)-phenyl]-1H-[1,2,3]triazol-4-ylmethyl}-piperidin-4-ol], the IC50 on mouse GPR4 is 534 nM; on human GPR4 [1] it was 77 nM; at human GPR4 [2], 58 nM; at rat GPR4 it was 1230 nM; at Human H3 it was more than 30000 nM; at human GPR4 [4] it was 78 nM.
`CCc1nn2c(C)cc(C)nc2c1Cc1ccc(/C=C/C(=O)N2CCNCC2)cc1` [Example 18, (E)-3-[4-(2-Ethyl-5,7-dimethyl-pyrazolo[1,5-a]pyrimidin-3-ylmethyl)-phenyl]-1-piperazin-1-yl-propenone hydrochloride]: the IC50 is 1280 nM on mouse GPR4; 81 nM at human GPR4 [1] (setting [5]); 43 nM on human GPR4 [2]; 1800 nM on rat GPR4; more than 30000 nM on Human H3; 67 nM on human GPR4 [4] (read-out: GPR4 4% HSA IC50).
